According to patent publication US20220400670A1, “PROTOPANAXATRIOL (PPT)-TYPE COMPOUNDS AS ACTIVE INGREDIENTS IN INSECTICIDE PRODUCTS” (priority 2019, published 2022):
Marks after values point to notes of the source that are not given here.

Assays:
[1] = tested on: Silverleaf whitefly biotype B (neonicotinoid-sensitive strain); assay: Lab tests in cotton: nymph mortality of silverleaf whitefly biotype B; type: in vivo, Bemisia tabaci; conditions: cotton plants; acetamiprid-treated (FIG. 3A)
Procedure: (§1) Cotton plants were grown in pots and sprayed with the indicated materials using a hand-sprayer. 20-25 females of Silverleaf whitefly biotype B (neonicotinoid-sensitive strain) or biotype Q (neonicotinoid-resistant strain) were transferred to each pot and attached to the treated leaves. Nymphs mortality was evaluated 1 and 2 weeks after treatment application and determined by percent (%) of pupation.

[2] = tested on: Silverleaf whitefly biotype Q (neonicotinoid-resistant strain); assay: Lab tests in cotton: nymph mortality of silverleaf whitefly biotype Q; type: in vivo, Bemisia tabaci; conditions: cotton plants
Procedure: as §1

Thrips tabaci [3] = assay: Field tests in cauliflower: Thrips on leaves and Thrips-induced damage; type: in vivo; conditions: another experiment, diafenthiuron 375 g/ha, PPT 400 g/ha; for Thrips adults per leaf / Thrips larva per leaf: cauliflower
Text: Cauliflower plants of White Corona variety at 20-30 cm height were sprayed twice at a 7 days interval with the indicted materials at a volume of 400-500 liter per hectare, using 3-nozzled ECHO backpack sprayer. The experiment included 4 repeats in random blocks of […] plants growth, each repeat at an area of 20 m^2. plots having high levels of Thrips tabaci (Thrips) infestation (5-10 Thrips per leaf) at uniform distribution at the beginning of the experiment were chosen for analysis, and 10 leaves per plot were picked and assessed for Thrips number. The number of Thrips adults or larva on each leaf was counted using OptiVISOR® magnifying device. The number of silverleaf whitefly (SLW) nymphs on each leaf was also counted using OptiVISOR® magnifying device.
At the end of the experiment the damage to the upper side of leaves caused by Thrips infestation was assessed on a scale of 0-5, where 0 equals no damage and 5 equals scraping on the leaf's blade (surface).

Thrips tabaci [4] = assay: Field tests in cucumber: number of Thrips on leaves; type: in vivo; conditions: second experiment
Text: Cucumber plants of kingstar variety at 170-190 cm height were sprayed twice at a 4 days interval with the indicted materials at a volume of 400-600 liter per hectare, using 3-nozzled ECHO backpack sprayer. The experiment included 4 repeats in random blocks of cucumber plants growth, each repeat at an area of 10-16 m^2. Plots having high levels of Thrips tabaci (Thrips) infestation (5-10 Thrips per leaf) at uniform distribution at the beginning of the experiment were chosen for analysis, and 10 leaves at shoulder height were picked and the number of Thrips was determined for each leaf.

[5] = tested on: Spodoptera littoralis stage 2-3 larva; assay: Screening assay for lethality; type: in vivo; conditions: PPT 50 ppm added to artificial medium; 3 screens, 4 larva replicates each
Procedure: Spodoptera littoralis stage 2-3 larva were grown in entomology trays on artificial medium. Treatment with PPT was effected by the addition of PPT (50 ppm) to the medium and lethality was assessed. The screening assay was repeated 3 times, with 4 larva replicates in each screen.

[6] = tested on: Pink Bollworm (Pectinophora gossypiella); assay: Lab tests on pink bollworm eggs: hatching and larva development; type: in vivo; conditions: 0.15% PPT solution, 5 repeats
Text: Paper cuttings with Egg clusters of pink bollworm were soaked in a 0.15% PPT solution, and hatching and larva development were observed compared to untreated controls (UTC).

Aphids (Aphis gossypii) = assay: Field tests in cotton: number of Aphids; type: in vivo; conditions: 6 days after the third application; EOS 1%, spinosad 60.5 g/ha, PPT 100 or 300 g/ha (FIG. 4B)
Text: Cotton plants were sprayed 3-4 times at 6-7 days interval with the indicated materials at a volume of 400 liter per hectare. The experiment included 4-5 repeats in random blocks of cotton plants growth, each repeat at an area of 8-10 m^2. The number of Thrips adults or larva, as well as the number of Aphids (Aphis gossypii), on each leaf was counted using OptiVISOR® magnifying device.

[7] = 4 DPA, neem oil 1%, PPT alone 225 g/ha
[8] = 9 DPA, neem oil 1%, PPT alone 225 g/ha
[9] = Day 0 (baseline), neem oil 1%, PPT alone 225 g/ha

C/C(=N\C#N)N(C)Cc1ccc(Cl)nc1 [Acetamiprid, reference compound]
nymph mortality of SLW biotype B, determined by percent of pupation [1]: efficient in eliminating SLW nymphs | nymph mortality of SLW biotype Q, determined by percent of pupation ([2]; acetamiprid 10 ppm (FIG. 3B)): had no effect

CC(C)c1cc(Oc2ccccc2)cc(C(C)C)c1NC(=S)NC(C)(C)C [Diafenthiuron, reference compound]
% efficacy on Thrips larva in cauliflower leaves (Thrips tabaci [3]; 7 DPA): 10% | % efficacy on Thrips larva in cauliflower leaves (Thrips tabaci [3]; 14 DPA): 0% | Thrips adults per leaf (Thrips tabaci [3]; 7 DPA): 1.3 per leaf | Thrips larva per leaf (Thrips tabaci [3]; 7 DPA): 13.9 per leaf | Thrips adults per leaf (Thrips tabaci [3]; 14 DPA): 2.1 per leaf | Thrips larva per leaf (Thrips tabaci [3]; 14 DPA): 9.8 per leaf | Thrips adults per leaf (Thrips tabaci [3]; Day 0 (baseline)): 2.9 per leaf | Thrips larva per leaf (Thrips tabaci [3]; Day 0 (baseline)): 13.0 per leaf

CC(C)=CCC[C@](C)(O)[C@H]1CC[C@]2(C)[C@@H]1[C@H](O)C[C@@H]1[C@@]3(C)CC[C@H](O)C(C)(C)[C@@H]3[C@@H](O)C[C@]12C [PPT, Protopanaxatriol]
% efficacy on Thrips in cucumber leaves (Thrips tabaci [4]; 4 DPA, PPT 500 g/ha): 65.8% | Number of Thrips adults on 10 cucumber leaves (Thrips tabaci [4]; 4 DPA, PPT 500 g/ha): 42.5 | Number of Thrips larva on 10 cucumber leaves (Thrips tabaci [4]; 4 DPA, PPT 500 g/ha): 30.0^a | Number of total Thrips (adults and larva) on 10 cucumber leaves (Thrips tabaci [4]; 4 DPA, PPT 500 g/ha): 72.5^a | % efficacy on Thrips in cucumber leaves (Thrips tabaci [4]; [7]): 41.4% | Number of Thrips adults on 10 cucumber leaves (Thrips tabaci [4]; [7]): 78.3 | Number of Thrips larva on 10 cucumber leaves (Thrips tabaci [4]; [7]): 45.8^a | Number of total Thrips (adults and larva) on 10 cucumber leaves (Thrips tabaci [4]; [7]): 124.0 | Number of Thrips adults on 10 cucumber leaves (Thrips tabaci [4]; 9 DPA, PPT 500 g/ha): 18.0 | Number of Thrips larva on 10 cucumber leaves (Thrips tabaci [4]; 9 DPA, PPT 500 g/ha): 13.0 | Number of total Thrips (adults and larva) on 10 cucumber leaves (Thrips tabaci [4]; 9 DPA, PPT 500 g/ha): 31.0 | Number of Thrips adults on 10 cucumber leaves (Thrips tabaci [4]; [8]): 22.3 | Number of Thrips larva on 10 cucumber leaves (Thrips tabaci [4]; [8]): 38.8 | Number of total Thrips (adults and larva) on 10 cucumber leaves (Thrips tabaci [4]; [8]): 61.0 | Number of Thrips adults on 10 cucumber leaves (Thrips tabaci [4]; Day 0 (baseline), PPT 500 g/ha): 41.8 | Number of Thrips larva on 10 cucumber leaves (Thrips tabaci [4]; Day 0 (baseline), PPT 500 g/ha): 110.0 | Number of total Thrips (adults and larva) on 10 cucumber leaves (Thrips tabaci [4]; Day 0 (baseline), PPT 500 g/ha): 151.8 | Number of Thrips adults on 10 cucumber leaves (Thrips tabaci [4]; [9]): 36.0 | Number of Thrips larva on 10 cucumber leaves (Thrips tabaci [4]; [9]): 95.8 | Number of total Thrips (adults and larva) on 10 cucumber leaves (Thrips tabaci [4]; [9]): 131.8 | mortality of resistant SLW biotype (Q) nymphs ([2]; PPT 0.075% (0.5x) or 0.15% (1x), dose-dependent (FIG. 3B)): up to 93% | lethality to larva [5]: lethal | Average number of hatchings ([6]; day 9 after treatment): 0.2 | Average number of larva ([6]; day 16 post treatment): 0 | Average number of late hatchings ([6]; day 16 post treatment): 1.8 | % efficacy on Thrips larva in cauliflower leaves (Thrips tabaci [3]; 7 DPA): 60% | % efficacy on Thrips larva in cauliflower leaves (Thrips tabaci [3]; 14 DPA): 60% | Thrips adults per leaf (Thrips tabaci [3]; 7 DPA): 0.6 per leaf | Thrips larva per leaf (Thrips tabaci [3]; 7 DPA): 5.9 per leaf | Thrips adults per leaf (Thrips tabaci [3]; 14 DPA): 0.48^a,b per leaf | Thrips larva per leaf (Thrips tabaci [3]; 14 DPA): 4.4^a,b per leaf | Thrips adults per leaf (Thrips tabaci [3]; Day 0 (baseline)): 3.0 per leaf | Thrips larva per leaf (Thrips tabaci [3]; Day 0 (baseline)): 16.5 per leaf

spinosad
number of Aphids on the cotton plants (Aphids (Aphis gossypii)): little or no effect
